According to patent US20220233566A1, “NOVEL CARBONATE COMPOUND HAVING PYRROLOPYRIMIDINE SKELETON OR PHARMACEUTICALLY ACCEPTABLE SALT THEREOF” (TAIHO PHARMACEUTICAL CO., LTD., priority 2019, published 2022):

Tests used:
[1] = tested on: human hematopoietic organ tumor cell line (MV-4-11); test: Evaluation 3 of antitumor effect and toxicity in mouse (MV-4-11 subcutaneous transplant); format: in vivo
Protocol: (§1) The day of grouping mice was determined Day 0.
On the final day of evaluation, the blood cell components (lymphocytes: LYMPH (Lymphocytes)) of individual groups were analyzed.

[2] = tested on: human brain tumor cell line (U-87 MG); test: Evaluation 1 of antitumor effect and toxicity in mouse (U-87 MG subcutaneous transplant); format: in vivo, BALB/cA Jcl-nu/nu mice
Protocol: as §1
IRs of Comparative Example 2-compound administration group and Example 1-compound administration group on the final day of evaluation (Day 6 in Comparative Example 2 and Day 13 in Example 1) are shown in FIG. 1 and BWC versus elapsed days is shown in FIG. 2.

[3] = tested on: H1650; test: Growth suppression activity to human tumor cell line (Evaluation 2); format: cell-based; conditions: NCI-H1650, 72 h, Human lung cancer, H1650, 3 days
Protocol: (§2) Human tumor cell lines different in type were suspended in mediums, seeded in individual wells of a multi-well plate and cultured. On the day after initiation of culture, serially diluted solutions of a compound were added. Culture was carried out for further 3 days. Cells were counted by a CellTiter-Glo (manufactured by Promega KK) in accordance with the protocol recommended by Promega KK. Cell viability was calculated in accordance with the equation shown below and the concentration (IC50 (nM)) of the compound at which 50% of cell growth is inhibited was obtained.
(§3) T: Intensity of light emitted from a well containing a compound
(§4) C: Intensity of light emitted from a well containing no compound

[4] = tested on: SK-BR-3; test: as above; format: cell-based; conditions: Homo sapiens, SK-BR-3, 72 h, Human breast cancer, SK-BR-3, 3 days
Protocol: as §2, §3, §4

[5] = tested on: HCC827; test: as above; format: cell-based; conditions: Homo sapiens, HCC827, 72 h, Human lung cancer, HCC827, 3 days
Protocol: as §2, §3, §4

[6] = tested on: A431; test: as above; format: cell-based; conditions: Homo sapiens, A-431, 72 h, Human epidermoid carcinoma, A431, 3 days
Protocol: as §2, §3, §4

[7] = tested on: A549; test: as above; format: cell-based; conditions: A549, 72 h, Human lung cancer, A549, 3 days
Protocol: as §2, §3, §4

[8] = tested on: RKO; test: as above; format: cell-based; conditions: 72 h, Human colorectal cancer, 3 days
Protocol: as §2, §3, §4

[9] = tested on: H358; test: as above; format: cell-based; conditions: NCI-H358, 72 h, Human lung cancer, H358, 3 days
Protocol: as §2, §3, §4

[10] = tested on: H2122; test: as above; format: cell-based; conditions: NCI-H2122, 72 h, Human lung cancer, H2122, 3 days
Protocol: as §2, §3, §4

[11] = Presence of prodrug in mouse and absorbency (plasma AUC after oral administration); format: in vivo; conditions: male, Balb/cA, mouse, 9.9 umol/kg, mice, 9.9 μmol/kg, administered compound itself in plasma, read-out: AUC0-6hr
Protocol: The dosage amounts of the compounds of Comparative Examples 1 to 5 and Examples 1 to 26 are those (mole/10 mL/kg) shown in Tables. Solutions for administration were prepared with an 0.5% aqueous solutions of HPMC so as to satisfy the dosage amounts.
Note that, the “amount of mole/10 mL/kg” means as follows: for example “10 mmol/10 mL/kg” means that 10 mmol of a test compound per body-weight (1 kg) of a mouse was dispersed or dissolved in a solution (10 mL) for administration. The same applies hereinafter.
The solutions for administration prepared above were orally administered to mice (Balb/cA, male) not fasted each by use of an oral administration sonde.
The mice were anesthetized with isoflurane 0.5, 1, 2, 4 and 6 hours after administration and blood was taken from the facial vein by use of a specific needle (animal lancet) and a heparin-coated hematocrit tube.
The blood sampled was immediately centrifuged (13000 rpm, 2 minutes, 4° C.) to prepare the plasma samples. After proteins were removed from the plasma samples, the concentrations of the test compound in the plasma samples were measured by LC/MS/MS.
The value of “area under the curve” (AUC) of drug concentration in blood versus time was calculated using analysis software such as Phoenix (registered trademark) WinNonlin (registered trademark).
In Table 3, “Comparative Example 1” and “Comparative Example 2” represent the “compound (Br form) of Comparative Example 1” and the “compound (I form) of Comparative Example 2”, respectively. In Table 4, “Comparative Example 6” represents the “compound (C1 form) of Comparative Example 6”.

[12] = tested on: H520; test: Growth suppression activity to human tumor cell line (Evaluation 3); format: cell-based; conditions: NCI-H520, 72 h; Human lung cancer, H520, 3 days
Protocol: as §2, with “of a” for “of the”
as §3, §4

[13] = tested on: A427; test: as above; format: cell-based; conditions: A-427, 72 h; Human lung cancer, A427, 3 days
Protocol: as §2, with “of a” for “of the”
as §3, §4

[14] = tested on: human brain tumor cell line (U-87 MG); test: Evaluation 2 of antitumor effect and toxicity in mouse (U-87 MG subcutaneous transplant); format: in vivo, BALB/cA Jcl-nu/nu mice; conditions: Day 6, oral every day, Example 5 14.6 mg/kg/day vs Comparative Example 2 12 mg/kg/day
Protocol: as §1
In order to evaluate “effect versus toxicity”, a ratio based on IR and BWC (effect index) was obtained, and Example 5-compound administration group was compared to Comparative Example 2-compound administration group.
Effect indexes of Comparative Example 2-Compound (I form) and Example 5-compound administration groups on Day 6 are shown in FIG. 3.

[15] = MV-4-11, oral every day from Day 1, Example 1 10.8 mg/kg/day
[16] = U-87 MG, oral every day from Day 1, Example 1 15.4 mg/kg/day

For `Nc1ncnc2c1c(I)cn2[C@@H]1O[C@H](CO)[C@@H](OC(=O)OC2CCCC2)[C@@H]1F` [Example 1, (2R,3R,4S,5R)-5-(4-amino-5-iodo-7H-pyrrolo[2,3-d]pyrimidin-7-yl)-4-fluoro-2-(hydroxymethyl)tetrahydrofuran-3-yl cyclopentyl carbonate], the “antitumor effect (RTV)” value [1, 15] was “remarkable antitumor effect (tumor regression was confirmed)”, the “effect on body weight and hematological toxicity (BWC, lymphocytes T/C %)” value [1, 15] was “low” and the “continuation of administration compared to Comparative Example 2-compound administration group” value ([1]; MV-4-11, oral every day, Example 1 10.8 mg/kg/day vs Comparative Example 2 12 mg/kg/day) was “longer”. For the same compound, the “antitumor effect (tumor-growth inhibition rate, IR)” value [2, 16] was “high antitumor effect”, the “effect on body weight (BWC)” value [2, 16] was “mild” and the “continuation of administration compared to Comparative Example 2-compound administration group” value ([2]; U-87 MG, oral every day, Example 1 15.4 mg/kg/day vs Comparative Example 2 12 mg/kg/day) was “longer”. For the same compound, the “final day of evaluation (administration continued as long as weight loss was acceptable, until 20% or more)” value ([2]; oral every day, Comparative Example 2 12 mg/kg/day, Example 1 15.4 mg/kg/day) was 13 days.
`Nc1ncnc2c1c(Cl)cn2[C@@H]1O[C@H](CO)[C@@H](O)[C@@H]1F` [Comparative Example 6, (2R,3R,4S,5R)-5-(4-amino-5-chloro-7H-pyrrolo[2,3-d]pyrimidin-7-yl)-4-fluoro-2-(hydroxymethyl) tetrahydrofuran-3-ol] showed an IC50 [3] of 31 nM, an IC50 [4] of 88 nM and an IC50 [5] of 795 nM. The IC50 [6] was 124 nM, the IC50 [7] was 54 nM and the IC50 [8] was 135 nM. It also gave an IC50 [9] of 273 nM, an IC50 [10] of 58 nM and an AUC(0-t) [11] of 2.07 µM·h.
In the case of `Nc1ncnc2c1c(I)cn2[C@@H]1O[C@H](CO)C(O)C1(F)F` (stereo partly drawn) [Comparative Example 7, (2R,3R,4S,5R)-5-(4-amino-5-iodo-7H-pyrrolo[2,3-d]pyrimidin-7-yl)-4,4-difluoro-2-(hydroxymethyl) tetrahydrofuran-3-ol, reference compound], the IC50 [12] is reported as 465 nM and the IC50 [13] is reported as 1140 nM.
In the case of `CC(C)OC(=O)O[C@H]1[C@H](F)[C@H](n2cc(I)c3c(N)ncnc32)O[C@@H]1CO` [Example 5, (2R,3R,4S,5R)-5-(4-Amino-5-iodo-7H-pyrrolo[2,3-d]pyrimidin-7-yl)-4-fluoro-2-(hydroxymethyl)tetrahydrofuran-3-yl isopropyl carbonate], the “effect versus toxicity (effect index, ratio based on IR and BWC)” value [14] is reported as “high compared to that of Comparative Example 2-compound administration group”.
